According to PubChem BioAssay (NCI):
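Protocol summary: plate cells (96-well), add compound at 5 concentrations, incubate 48 h, interpolate endpoints linearly. At the TGI there is no net growth.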

Key:
Assay in all cases: NCI tumour cell line growth inhibition, 48 h
SF-295 CNS = test system: SF-295 CNS
SNB-75 CNS = test system: SNB-75 CNS
NCI-H23 lung = test system: NCI-H23 lung
K-562 leukemia = test system: K-562 leukemia
SK-MEL-28 melanoma = test system: SK-MEL-28 melanoma
SR leukemia = test system: SR leukemia
M19-MEL melanoma = test system: M19-MEL melanoma
NCI-H460 lung = test system: NCI-H460 lung
NCI-H522 lung = test system: NCI-H522 lung
SF-268 CNS = test system: SF-268 CNS
OVCAR-8 ovarian = test system: OVCAR-8 ovarian
MALME-3M melanoma = test system: MALME-3M melanoma
SN12C renal = test system: SN12C renal
IGROV1 ovarian = test system: IGROV1 ovarian
DLD-1 colon = test system: DLD-1 colon
OVCAR-5 ovarian = test system: OVCAR-5 ovarian
LOX IMVI melanoma = test system: LOX IMVI melanoma
UACC-257 melanoma = test system: UACC-257 melanoma
COLO 205 colon = test system: COLO 205 colon
OVCAR-3 ovarian = test system: OVCAR-3 ovarian
HOP-92 NSCLC = test system: HOP-92 NSCLC
UO-31 renal = test system: UO-31 renal
SK-MEL-5 melanoma = test system: SK-MEL-5 melanoma
HT29 colon = test system: HT29 colon
HCC-2998 colon = test system: HCC-2998 colon
786-0 renal = test system: 786-0 renal
TK-10 renal = test system: TK-10 renal
LXFL 529 NSCLC = test system: LXFL 529 NSCLC
HOP-62 NSCLC = test system: HOP-62 NSCLC
HCT-116 colon = test system: HCT-116 colon
KM12 colon = test system: KM12 colon
HL-60(TB) leukemia = test system: HL-60(TB) leukemia
SNB-78 CNS = test system: SNB-78 CNS
CAKI-1 renal = test system: CAKI-1 renal
DMS 114 small cell lung = test system: DMS 114 small cell lung
MOLT-4 leukemia = test system: MOLT-4 leukemia
UACC-62 melanoma = test system: UACC-62 melanoma
CCRF-CEM leukemia = test system: CCRF-CEM leukemia
HOP-18 NSCLC = test system: HOP-18 NSCLC
SF-539 CNS = test system: SF-539 CNS
RXF-631 renal = test system: RXF-631 renal
ACHN renal = test system: ACHN renal
XF 498 CNS = test system: XF 498 CNS
DMS 273 small cell lung = test system: DMS 273 small cell lung
RXF 393 renal = test system: RXF 393 renal
SW-620 colon = test system: SW-620 colon
M14 melanoma = test system: M14 melanoma
SNB-19 CNS = test system: SNB-19 CNS
A549 NSCLC = test system: A549 NSCLC
U251 CNS = test system: U251 CNS
OVCAR-4 ovarian = test system: OVCAR-4 ovarian
RPMI-8226 leukemia = test system: RPMI-8226 leukemia
SK-OV-3 ovarian = test system: SK-OV-3 ovarian
SK-MEL-2 melanoma = test system: SK-MEL-2 melanoma
A498 renal = test system: A498 renal
EKVX NSCLC = test system: EKVX NSCLC
NCI-H226 lung = test system: NCI-H226 lung
HCT-15 colon = test system: HCT-15 colon
KM20L2 colon = test system: KM20L2 colon

Measured: TGI

COc1ccc2c(c1)CCc1c(C(C)=O)c3ccccc3n1C2
62.6 µM: SF-539 CNS
91.3 µM: HOP-62 NSCLC
> 100 µM: SF-295 CNS | NCI-H23 lung | K-562 leukemia | SK-MEL-28 melanoma | SR leukemia | M19-MEL melanoma | NCI-H460 lung | NCI-H522 lung | SF-268 CNS | OVCAR-8 ovarian | SN12C renal | IGROV1 ovarian | DLD-1 colon | OVCAR-5 ovarian | LOX IMVI melanoma | UACC-257 melanoma | COLO 205 colon | OVCAR-3 ovarian | HOP-92 NSCLC | UO-31 renal | SK-MEL-5 melanoma | HT29 colon | HCC-2998 colon | 786-0 renal | TK-10 renal | LXFL 529 NSCLC | HCT-116 colon | KM12 colon | HL-60(TB) leukemia | SNB-78 CNS | CAKI-1 renal | DMS 114 small cell lung | MOLT-4 leukemia | UACC-62 melanoma | CCRF-CEM leukemia | HOP-18 NSCLC | RXF-631 renal | ACHN renal | DMS 273 small cell lung | SW-620 colon | M14 melanoma | SNB-19 CNS | A549 NSCLC | U251 CNS | OVCAR-4 ovarian
85.1 µM: SNB-75 CNS
75.4 µM: RXF 393 renal
74.4 µM: MALME-3M melanoma
51.2 µM: XF 498 CNS

Cc1cc(C)nc(Sc2c([N+](=O)[O-])ncn2C)n1
85.4 µM: HOP-18 NSCLC
> 100 µM: SF-295 CNS | SNB-75 CNS | NCI-H23 lung | RPMI-8226 leukemia | K-562 leukemia | SK-OV-3 ovarian | SK-MEL-28 melanoma | SK-MEL-2 melanoma | SR leukemia | M19-MEL melanoma | A498 renal | NCI-H460 lung | NCI-H522 lung | SF-268 CNS | OVCAR-8 ovarian | MALME-3M melanoma | SN12C renal | IGROV1 ovarian | DLD-1 colon | OVCAR-5 ovarian | LOX IMVI melanoma | UACC-257 melanoma | COLO 205 colon | OVCAR-3 ovarian | HOP-92 NSCLC | UO-31 renal | SK-MEL-5 melanoma | HT29 colon | HCC-2998 colon | 786-0 renal | TK-10 renal | LXFL 529 NSCLC | HOP-62 NSCLC | HCT-116 colon | KM12 colon | SNB-78 CNS | CAKI-1 renal | DMS 114 small cell lung | MOLT-4 leukemia | UACC-62 melanoma | CCRF-CEM leukemia | SF-539 CNS | EKVX NSCLC | RXF-631 renal | NCI-H226 lung | ACHN renal | XF 498 CNS | DMS 273 small cell lung | SW-620 colon | M14 melanoma | SNB-19 CNS | A549 NSCLC | U251 CNS | OVCAR-4 ovarian

COc1ccc(C2C(C#N)=C(O)NC(O)=C2C#N)cc1OC
> 100 µM: SF-295 CNS | SNB-75 CNS | RPMI-8226 leukemia | SK-OV-3 ovarian | SK-MEL-28 melanoma | SK-MEL-2 melanoma | SR leukemia | M19-MEL melanoma | A498 renal | NCI-H522 lung | SF-268 CNS | OVCAR-8 ovarian | MALME-3M melanoma | SN12C renal | IGROV1 ovarian | HCT-15 colon | OVCAR-5 ovarian | COLO 205 colon | OVCAR-3 ovarian | HOP-92 NSCLC | UO-31 renal | SK-MEL-5 melanoma | HT29 colon | HCC-2998 colon | LXFL 529 NSCLC | HOP-62 NSCLC | HCT-116 colon | KM12 colon | SNB-78 CNS | CAKI-1 renal | MOLT-4 leukemia | HOP-18 NSCLC | SF-539 CNS | KM20L2 colon | EKVX NSCLC | RXF-631 renal | XF 498 CNS | DMS 273 small cell lung | SW-620 colon | M14 melanoma | SNB-19 CNS | A549 NSCLC | U251 CNS
